Measured values from US20250362286A1, “SCREENING MODELS AND METHODS OF CANCER TREATMENT” (The Regents of the University of California, priority 2022, published 2025).
“Also recorded” adds a separate entry of the source.

Key:
[1] = system: MDAs and MDA-231-BrM2 (TNBC), Py8119 (Breast Cancer), HT-1080 (fibrosarcoma), Sk-HEP-1 (liver cancer), and R40P (PDAC) cells; test: phenotype screen for anti-invasive activity in the HD Col1 model system; assay type: cell-based; conditions: HD Col1, 7 days of culture; all six cell lines
Text: In this example, it was explored whether isoxazole derivatives could similarly induce differentiation of CSCs occupying the clinically relevant notch-activated state conferred by the HD Col1 model system of Example 1 (Table 1, FIG. 1). […] FIG. 2 includes brightfield microscopy images of cancer cell lines at 7 days of culture in HD Col1 treated with vehicle or ISX9 (scale bar=250 μm).

MDAs [2] = test: western blot of EMT markers E-cadherin and Vimentin; assay type: cell-based
Text: Given the strong phenotypic changes induced by ISX9 in HD Col1 (FIG. 2), this example also assessed the differentiation activity of ISX9 by characterizing Epithelial-to-Mesenchymal (EMT) status using western blot (WB) analysis of E-cadherin and vimentin levels. […] FIG. 3D depicts WB of EMT markers E-cadherin and Vimentin in cancer cell lines treated with vehicle or ISX9.
To understand whether ISX9 treatment could induce Mesenchymal-to-Epithelial Transition (MET), western blotting (WB) was performed for the epithelial marker E-Cadherin (CDH1) and the Mesenchymal marker Vimentin (Vim) on 2D and HD Collagen-treated tumor cells (FIG. 4D). FIG. 4D depicts a western blot analysis of EMT markers E-cadherin and Vimentin in MDAs treated with vehicle or ISX9 for 7 days in 2D TC or HD Col1.

MDAs [3] = test: RT-qPCR of CD24 expression in MDAs, 7 days; assay type: cell-based; conditions: after 7 days, population level
Text: To further assess differentiation status, RT-PCR and flow cytometry (FC) was used to quantify expression of the CSC stemness biomarker signature CD44^+/CD24^− in MDAs. At the population level, MDAs increased CD24 mRNA expression ˜14-fold with ISX9 treatment after 7 days (FIG. 3E). FIG. 3E depicts RT-qPCR of CD24 expression in MD As treated with vehicle or ISX9. […] (FIG. 3F, FIG. 3G). FIG. 3F and FIG. 3G depicts flow cytometry analysis of MDAs treated with vehicle or ISX9.

BT-549 = test: CD24 mRNA expression in 2D for 48h; assay type: cell-based
Protocol: (§1) FIG. 3H depicts relative CD24 mRNA expression. CD24 expression was an early indicator of response to ISX9 in 2D across several TNBC cell lines. Treatment screening of several different TNBC cell lines with ISX9 in 2D for 48h yielded four responders, as determined by CD24 mRNA expression (FIG. 3H).

MDA-MB-468 = test: CD24 mRNA expression in 2D for 48h; assay type: cell-based
Protocol: as §1

MDA-MB-231s = test: CD24 mRNA expression in 2D (differentiation screening); assay type: cell-based
Protocol: as §1
These analogs were screened for their potential to differentiate MDA-MB-231s, yielding at least one new hit, CR-1 (˜98% similarity), which induced a ˜6-fold upregulation of CD24 at a concentration of 200 μM at 48h in 2D (FIG. 6).

LL/2 lung cancer cells = test: western blot of EMT transcription factor TWIST1; assay type: cell-based; conditions: HD Col1, 7 days
Text: FIG. 4E depicts a western blot analysis of EMT transcription factor TWIST1 in LL/2 lung cancer cells treated with vehicle or ISX9 for 7 days in 2D TC or HD Col1.

MDAs [4] = test: CytoTox-Fluor cytotoxicity assay; assay type: cell-based; conditions: 2D, 1-40 μM
Text: FIG. 7C depicts the metabolic activity, cytotoxicity, and relative CD24 expression dose-response to ISX9.

PA-14-13 PDOs [5] = test: western blot of E-Cadherin and Vimentin in PDOs; assay type: cell-based; conditions: 6 days
Text: (§2) FIG. 8N depicts a western blot analysis of E-Cadherin and Vimentin in PIM-025 PDOs treated with vehicle or ISX9 for 6 days. FIG. 8O depicts a western blot analysis of E-Cadherin and Vimentin in PA-14-13 PDOs treated with vehicle or ISX9 for 6 days.

PIM-025 PDOs [6] = test: western blot of E-Cadherin and Vimentin in PDOs; assay type: cell-based; conditions: 6 days
Text: as §2

PA-14-13 PDOs [7] = test: sensitivity of PDOs to doxorubicin after pre-treatment; assay type: cell-based; conditions: pre-treatment 5d, then doxorubicin 3d
Protocol: (§3) To determine if these effects would translate to increased sensitivity to chemotherapy, both sets of PDOs were treated with ISX9 for 5d, followed by doxorubicin for 3d. […] FIG. 8P and FIG. 8Q depicts results of tests showing that PIM-025 PDOs and PA-14-13 PDOs, respectively, pre-treated with ISX9 acquire increased sensitivity to doxorubicin.

PIM-025 PDOs [8] = test: as above; assay type: cell-based; conditions: pre-treatment 5d, then doxorubicin 3d
Protocol: as §3

[9] = once daily 16 mg/kg ip for several weeks, cited from earlier work
[10] = cited from earlier work

Question: With `O=C(NC1CC1)c1cc(-c2cccs2)on1` [ISX9, Isoxazole 9] as the molecule, how does the invasive capability [1] read?
Answer: significant abrogation of the invasive capability

Question: What about the “effect on MET markers E-Cadherin and Vimentin (WB)” value (MDAs [2]; 2D-treated cells, 7 days) of the same molecule?
Answer: no effect on either MET marker

Question: And the “E-cadherin expression (WB)” value (MDAs [2]; 7 days in HD Col1)?
Answer: increased E-cadherin expression; also recorded: increase in E-Cadherin

Question: What about the “Vimentin expression (WB)” value (MDAs [2]; 7 days in HD Col1) of the same molecule?
Answer: reduced Vimentin expression; also recorded: decrease in Vimentin

Question: What about the “increase of CD24 mRNA expression” value (MDAs [3]) of the same molecule?
Answer: ~14 fold

Question: And the “CD24 mRNA expression (FC)” value (BT-549)?
Answer: ~12.6

Question: And the “CD24 mRNA expression (FC)” value (MDA-MB-468)?
Answer: ~0.6

Question: And the “CD24 mRNA expression (FC)” value (MDA-MB-231s; 48h)?
Answer: ~31.6

Question: And the “CD24 mRNA dose-response” value (MDA-MB-231s; concentration range 1-40 μM)?
Answer: upregulation of CD24 mRNA

Question: And the “TWIST1 protein expression (WB)” value (LL/2 lung cancer cells)?
Answer: reduced TWIST1 protein expression

Question: What about the cytotoxicity (MDAs [4]) of the same molecule?
Answer: without any observable increase in cytotoxicity

Question: What about the “Vimentin expression (WB)” value (PA-14-13 PDOs [5]) of the same molecule?
Answer: no observed differences to Vimentin expression

Question: And the “Vimentin expression (WB)” value (PIM-025 PDOs [6])?
Answer: no observed differences to Vimentin expression

Question: And the “increase in sensitivity to doxorubicin” value (PA-14-13 PDOs [7])?
Answer: 85.8 fold

Question: What about the “increase in sensitivity to doxorubicin” value (PIM-025 PDOs [8]) of the same molecule?
Answer: 2.9 fold

Question: And the “tolerability (signs or symptoms)” value ([9]; 16 mg/kg)?
Answer: well-tolerated; also recorded: no signs or symptoms of lethargy, weight loss or decreased appetite

Question: What about the “serum biochemistry and hematology profiles” value [9] of the same molecule?
Answer: normal

Question: And the “detection in heart tissue” value ([10]; ip injection)?
Answer: detected

Question: And the “terminal half-life in plasma” value ([10]; single bolus ip injection)?
Answer: < 15 min
